Assay results as given in EPA's ToxValDB 9.5 (doi:10.2903/j.efsa.2015.4206).

Legend:
[1] = test system: Apis mellifera; details: acute, mortality
[2] = test system: Bibionidae; details: chronic/long-term; duration: 28 days; development
[3] = test system: Canidae; details: oral, Dog Other
[4] = test system: Colinus virginianus; details: acute; oral; mortality
[5] = test system: Coturnix japonica
[6] = test system: Daphnia magna; details: chronic/long-term; duration: 21 days; reproduction
[7] = test system: Folsomia candida; details: chronic/long-term; duration: 28 days
[8] = test system: Hypoaspis aculeifer; details: chronic/long-term; duration: 14 days
[9] = test system: Oncorhynchus mykiss; details: chronic/long-term; duration: 21 days; growth
[10] = test system: Rattus norvegicus
[11] = test system: Tagia sp.
[12] = test system: Aphidius rhopalosiphi; test: LR50; higher = less toxic; details: not reported; mortality
[13] = test system: Typhlodromus pyri; test: LR50; higher = less toxic; details: not reported; mortality

CC(C)c1ccc(NC(=O)N(C)C)cc1 [Isoproturon]
LD50 ([1]; dermal): > 100 µg/piece | LD50 ([1]; oral, unspecified): > 99.2 µg/piece | NOEC [2]: 0.344 mg/L | NOAEL ([3]; short-term, histopathology: nonneoplastic): 3.2 mg/kg-day | NOAEL ([3]; subchronic, duration: 90 days, hematological): 10 mg/kg-day | LD50 [4]: 1400 mg/kg-day | LC50 ([5]; acute, oral, diet, mortality): > 5000 mg/kg | NOAEL ([5]; reproduction developmental, reproduction): 12 mg/kg-day | NOEC [6]: 0.12 mg/L | NOEC [7]: 24.3 mg/kg | NOEC [8]: > 459 mg/kg | NOEC [9]: 1 mg/L | LD50 ([10]; acute, mortality): 1830 mg/kg-day | NOEC ([10]; chronic): 10 mg/kg-day | NOAEL ([10]; chronic, duration: 2 years, histopathology: neoplastic): 3.1 mg/kg-day | LC50 ([11]; acute, duration: 14 days, mortality): > 500 mg/kg | NOEC ([11]; chronic/long-term, duration: 8 weeks): 14 mg/kg | LR50 [12]: > 2500 g/ha | LR50 [13]: > 2500 g/ha
